Earlier results on three compounds are cited in patent US20220346434A1, “ORAL COMPOSITIONS AND METHODS OF MANUFACTURE” (NICOVENTURES TRADING LIMITED, priority 2021, published 2022).

The conditions of data set [1]: for solubility in water / aqueous environment: water or aqueous environment (e.g., saliva).
The conditions of data set [2]: converts via isomerization into trans-bixin (β-bixin).

With `CC(/C=C/C=C(C)/C=C/C(=O)O)=C\C=C\C=C(C)\C=C\C=C(C)\C=C\C(=O)O` (stereo in doubt) [norbixin, (2E,4E,6E,8E,10E,12E,14E,16E,18E)-4,8,13,17-tetramethylicosa-2,4,6,8,10,12,14,16,18-nonaenedioic acid], in data set [1], the “solubility in water / aqueous environment” value is reported as “water soluble”.
Regarding `C=C(C)[C@@H]1CCC(C)=C[C@H]1c1c(O)cc(CCCCC)cc1O` [CBD, cannabidiol, reference compound], in data set [1], the “solubility in water / aqueous environment” value is on record as “insoluble in an aqueous environment”.
On to `COC(=O)/C=C/C(C)=C\C=C\C(C)=C\C=C\C=C(C)\C=C\C=C(C)\C=C\C(=O)O` [bixin], for which, in data set [1] (fats and alcohols), the “solubility in fats and alcohols” value is “soluble in fats and alcohols”. For the same compound, the “solubility in water / aqueous environment” value in data set [1] is “insoluble in water”. The “chemical stability when isolated” value in data set [2] is given as “chemically unstable when isolated”.
